In the supplement of paper PMC10307832:

How the values were obtained:
Experiment in all cases: relative viability (nuclei count vs DMSO), 5 days (fraction); higher = more cells survive
[1] = compound: C1/C(=C\C2=CC=CS2)/C(=O)/C(=C/C3=CC=CS3)/C1 + CC(C)C[C@H](NC(=O)[C@H](Cc1ccccc1)NC(=O)c1cnccn1)B(O)O [Bortezomib] (partner 0.002 µM)
How it was run: (§1)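 Relative viability was taken as the ratio of nuclei in treated wells to nuclei in vehicle wells. Lung cancer cell lines in 1536-well plates received compounds by pin tool one day after seeding, either one drug alone or a fixed anchor-drug dose plus five library-drug doses (not always all listed) in √10 steps. Nuclei were counted on 4× images after 5 days of treatment, and values are medians of duplicate plates.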

[2] = compound: C1/C(=C\C2=CC=CS2)/C(=O)/C(=C/C3=CC=CS3)/C1 + Cc1cc(Nc2cc(N3CCN(C)CC3)nc(Sc3ccc(NC(=O)C4CC4)cc3)n2)n[nH]1 [Tozasertib] (partner 0.1 µM)
How it was run: as §1

[3] = compound: C1=CC(=CC=C1C2=CC(=C(S2)NC(=O)N)C(=O)N)F [TPCA-1] + N=C(N)NC(=N)NCCc1ccccc1 [Phenformin] (partner 250 µM)
How it was run: as §1

[4] = compound: C1=CC(=CC=C1C2=CC(=C(S2)NC(=O)N)C(=O)N)F [TPCA-1] + Nc1ncn([C@H]2C[C@H](O)[C@@H](CO)O2)c(=O)n1 [Decitabine] (partner 2 µM)
How it was run: as §1

Row | Cell Line | relative viability ([1]; first compound 0.2 µM) | relative viability ([1]; first compound 0.6325 µM) | relative viability ([1]; first compound 2 µM) | relative viability ([1]; first compound 6.325 µM) | relative viability ([1]; first compound 20 µM) | relative viability ([2]; first compound 0.2 µM) | relative viability ([2]; first compound 0.6325 µM) | relative viability ([2]; first compound 2 µM) | relative viability ([2]; first compound 6.325 µM) | relative viability ([2]; first compound 20 µM) | relative viability ([3]; first compound 0.04 µM) | relative viability ([3]; first compound 0.1265 µM) | relative viability ([3]; first compound 0.4 µM) | relative viability ([3]; first compound 1.265 µM) | relative viability ([3]; first compound 4 µM) | relative viability ([4]; first compound 0.04 µM) | relative viability ([4]; first compound 0.1265 µM) | relative viability ([4]; first compound 0.4 µM) | relative viability ([4]; first compound 1.265 µM) | relative viability ([4]; first compound 4 µM)
1 | A-427 | 1.07 | 1.08 | 0.961 | 0.993 | 0.981 | 0.185 | 0.22 | 0.248 | 0.176 | 0.216 | 0.423 | 0.283 | 0.371 | 0.19 | 0.145 | 0.62 | 0.535 | 0.591 | 0.564 | 0.504
2 | ABC-1 | 0.33 | 0.349 | 0.336 | 0.265 | 0.253 | 0.182 | 0.17 | 0.195 | 0.195 | 0.218 | 0.292 | 0.22 | 0.197 | 0.211 | 0.203 | 1.49 | 1.07 | 1.16 | 1.09 | 1.27
3 | BEN | 0.719 | 1.04 | 1.01 | 0.68 | 0.719 | 0.474 | 0.506 | 0.506 | 0.52 | 0.6 | 0.304 | 0.262 | 0.255 | 0.254 | 0.249 | 0.875 | 0.625 | 0.813 | 0.838 | 0.387
4 | COR-L23 | 1.12 | 0.983 | 0.978 | 0.946 | 1.01 | 0.223 | 0.203 | 0.197 | 0.185 | 0.193 | 0.483 | 0.47 | 0.436 | 0.415 | 0.328 | 0.498 | 0.394 | 0.466 | 0.385 | 0.403
5 | COR-L 105 | 1.02 | 0.73 | 1.03 | 0.678 | 0.662 | 0.337 | 0.33 | 0.316 | – | 0.407 | 0.471 | 0.406 | 0.448 | 0.368 | 0.323 | 0.711 | 0.622 | 0.735 | 0.612 | 0.537
6 | ChaGo-K-1 | 0.998 | 0.934 | 0.967 | 0.559 | 0.517 | 0.241 | 0.235 | 0.259 | 0.212 | 0.197 | 0.524 | 0.472 | 0.54 | 0.48 | 0.259 | 0.49 | 0.453 | 0.565 | 0.499 | 0.321
7 | EKVX | 1.11 | 1.02 | 1.12 | 0.933 | 1.1 | 0.405 | 0.452 | 0.329 | 0.424 | 0.394 | 0.215 | 0.22 | 0.252 | 0.198 | 0.125 | 0.366 | – | 0.383 | 0.316 | 0.345
8 | EMC-BAC-2 | 1.16 | 1.08 | 1.19 | 0.967 | 1.02 | 0.267 | 0.339 | 0.298 | 0.293 | 0.48 | 0.604 | 0.476 | 0.571 | 0.4 | 0.247 | 0.997 | 0.972 | 0.939 | 0.852 | 0.898
9 | EPLC-272H | 0.957 | 0.903 | 0.93 | 1.01 | 0.839 | 0.293 | 0.325 | 0.322 | 0.283 | 0.287 | 0.343 | 0.391 | 0.292 | 0.289 | 0.272 | 0.458 | 0.318 | 0.41 | 0.372 | 0.382
10 | H3255 | 0.778 | 0.82 | 0.71 | 0.84 | 0.618 | 0.714 | 0.617 | 0.566 | 0.537 | 0.546 | 0.39 | 0.39 | 0.353 | 0.356 | 0.316 | 0.71 | 0.553 | 0.676 | 0.513 | 0.475
11 | HARA | 1.23 | 1.1 | 1.08 | 0.89 | 1.07 | 0.121 | 0.123 | 0.116 | 0.101 | 0.0981 | 0.476 | 0.45 | 0.469 | 0.484 | 0.162 | 0.576 | 0.54 | 0.844 | 0.462 | 0.492
12 | HCC-15 | 1.06 | 1.03 | 1.03 | 0.884 | 1.03 | 0.422 | 0.497 | 0.367 | 0.397 | 0.357 | 0.578 | 0.479 | 0.509 | 0.435 | 0.275 | 0.731 | 0.546 | 0.708 | 0.625 | 0.374
13 | HCC-44 | 0.911 | 0.851 | 0.844 | 0.801 | 0.923 | 1.04 | 0.609 | 0.928 | 0.837 | 0.923 | 0.195 | 0.178 | 0.209 | – | 0.153 | 1.1 | 0.841 | 0.908 | 0.879 | 0.887
14 | HCC-78 | 0.623 | 0.464 | 0.534 | 0.463 | 0.301 | 0.423 | 0.593 | 0.45 | 0.37 | 0.454 | 0.724 | 0.732 | 0.657 | 0.693 | 0.436 | 0.788 | 0.698 | 0.565 | 0.711 | 0.529
15 | HCC-366 | 1.03 | 1.09 | 1.07 | 0.893 | 1.07 | 0.105 | 0.0974 | 0.101 | 0.0969 | 0.0897 | 0.727 | 0.617 | 0.652 | 0.673 | 0.098 | – | 0.285 | 0.361 | 0.271 | 0.322
16 | HCC-827 | 1.1 | 1.07 | 0.993 | 0.84 | 1.05 | 0.414 | 0.405 | 0.441 | 0.44 | 0.503 | 0.384 | 0.385 | 0.404 | 0.367 | 0.353 | 0.364 | 0.326 | 0.317 | 0.31 | 0.31
17 | HOP-62 | 0.619 | 0.765 | 0.94 | 0.979 | 0.634 | 0.368 | 0.39 | 0.348 | 0.302 | 0.39 | 0.692 | 0.64 | 0.684 | 0.603 | 0.485 | 0.261 | 0.198 | 0.215 | 0.198 | 0.214
